The values below come from US9029376B2, “Small molecule inhibitors for the treatment or prevention of dengue virus infection” (Siga Technologies, Inc., priority 2008, dated 2015).

Series [1] has as its system Dengue-2 (Strain New Guinea C). The series is described as follows: Dengue-2 viral yield assay in Vero cells. Type of series: cell-based. The settings on record: Dengue virus, read-out: Activity (anti-dengue 2 viral activity, EC50). On the procedure: Compounds that were active in the primary screen were tested for activity in viral yield assays. […] Vero cells in 12-well plates were infected with dengue-2 virus at a multiplicity of infection (MOI) of 0.1, treated with compound (or DMSO as a control), incubated at 37° C., harvested 48 hours post infection and titered on Vero cells as described above. The EC50 was calculated through ExcelFit. Those compounds with activity below 1 μM are indicated with “A”, those with activity between 1 and 10 μM are indicated with “B”, and those with activity between 10 and 25 μM with “C”.

A short description of series [2]: Cytotoxicity (cell proliferation assay, MTT or Alamar Blue). Type of series: cell-based. The settings on record: flag printed in the Activity column of Table 1. On the procedure:
(§1) Initially, the chemical structures of the hit compounds were examined for chemical tractability. […] Hits that passed this medicinal chemistry filter were evaluated for their potency. Compound potency was determined by evaluating inhibitory activity across a broad range of concentrations. Nonlinear regression was used to generate best-fit inhibition curves and to calculate the 50% effective concentration (EC50). The selectivity or specificity of a given compound is typically expressed as a ratio of its cytotoxicity to its biological effect. A cell proliferation assay is used to calculate a 50% cytotoxicity concentration (CC50); the ratio of this value to the EC50 is referred to as the therapeutic index (T.I.=CC50/EC50). Two types of assays have been used to determine cytotoxicity, both of which are standard methods for quantitating the reductase activity produced in metabolically active cells (30). One is a colorimetric method that measures the reduction of 3-(4,5-dimethylthiazol-2-yl)-2,5-diphenyl-tetrazolium bromide (MTT), and the other uses fluorimetry to measure the reduction of resazurin (Alamar Blue). […] Verification that these compounds act against each of the four serotypes of dengue was done with yield assays carried out at several drug concentrations, and the titer determined for each.
Background: Alamar Blue is a resazurin reagent that responds to reducing activity.

Series [3] has as its system dengue. The conditions noted are these: mouse model; cited from earlier work.
For series [4], the system named is dengue. The conditions noted are these: cited from earlier work.
Series [5] concerns all four serotypes of dengue. As to the kind of experiment: Yield assay against each serotype of dengue virus in vero cells. It counts as cell-based. The settings on record: FIG. 1. On the procedure:
as §1, with “each. […]” for “each.”

[6] abbreviates: Dengue-2 strain New Guinea C, Vero cells, MOI 0.1, harvested 48 hours post infection, viral yield.

Where two headings read alike, the source gives them in different places.

For orientation: EC50 means the concentration at which the effect is half-maximal. As to `COc1ccccc1C(=O)C1CCCN(C(=O)CSc2nc3cc(C)ccc3[nH]2)C1` (stereo not shown) [Compound 12, 1-[3-(2-Methoxy-benzoyl)-piperidin-1-yl]-2-(5-methyl-1H-benzoimidazol-2-ylsulfanyl)-ethanone], the EC50 in series [1] (setting [6]) fell in the range of 1000 to 10000 nM. For the same compound, the “toxic (flag beside activity class)” value in series [2] was “toxic”.

On to `O=C1CC(Sc2nc3ccccc3s2)C(=O)N1Cc1ccccc1` (stereo not shown) [Compound 4, 3-(Benzothiazol-2-ylsulfanyl)-1-benzyl-pyrrolidine-2,5-dione], for which the EC50 in series [1] (setting [6]) is < 1000 nM. Besides, the “toxic (flag beside activity class)” value in series [2] is listed as “toxic”.

Consider `NC(=O)c1ncn([C@@H]2O[C@H](CO)[C@@H](O)[C@H]2O)n1` [ribavirin], for which the protection against dengue result in series [3] and in series [4] (rhesus monkey model) was “did not show protection against dengue” each time. In addition, in series [4] (animal model not specified in the sentence (mouse or rhesus monkey)), the adverse effects induced entry is “induced anemia and thrombocytosis”.

As for `NC(=O)C1(N2CCCCC2)CCN(C(=O)CSc2nc3ccccc3o2)CC1` [Compound 3, 1′-[2-(Benzooxazol-2-ylsulfanyl)-acetyl]-[1,4′]bipiperidinyl-4′-carboxylic acid amide], the concentration for a half-maximal effect (EC50) in series [1] (Vero, 48 h) was < 1000 nM. In addition, in series [5], the “activity against dengue serotypes” value is “activity against all four serotypes of dengue”.

In the case of `O=C(Nc1ccc2nc(SCC(=O)N3CCOCC3)sc2c1)c1ccccc1F` [Compound 27, 2-Fluoro-N-[2-(2-morpholin-4-yl-2-oxo-ethylsulfanyl)-benzothiazol-6-yl]-benzamide], in series [1] (setting [6]), the EC50 is > 25000 nM.
